Reference: PubChem BioAssay (NCI)
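Tested at 5 concentrations; 48 h exposure; 96-well plates; endpoints linearly interpolated, else capped at highest concentration. Here, GI50 denotes the concentration required for 50% inhibition of growth. TGI marks complete inhibition of growth.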

Legend:
Assay in all cases: NCI anticancer screen, dose series, 48 h
786-0 renal = tested on: 786-0 renal
BT-549 breast = tested on: BT-549 breast
KM12 colon = tested on: KM12 colon
UACC-257 melanoma = tested on: UACC-257 melanoma
SR leukemia = tested on: SR leukemia
UO-31 renal = tested on: UO-31 renal
NCI-H23 lung = tested on: NCI-H23 lung
SN12C renal = tested on: SN12C renal
DU-145 prostate = tested on: DU-145 prostate
HCT-116 colon = tested on: HCT-116 colon

Row | Compound | TGI (786-0 renal) [µM] | TGI (BT-549 breast) [µM] | TGI (KM12 colon) [µM] | TGI (UACC-257 melanoma) [µM] | TGI (SR leukemia) [µM] | TGI (UO-31 renal) [µM] | TGI (NCI-H23 lung) [µM] | TGI (SN12C renal) [µM] | TGI (DU-145 prostate) [µM] | TGI (HCT-116 colon) [µM] | GI50 (786-0 renal) [µM] | GI50 (BT-549 breast) [µM] | GI50 (KM12 colon) [µM] | GI50 (UACC-257 melanoma) [µM] | GI50 (SR leukemia) [µM] | GI50 (UO-31 renal) [µM] | GI50 (NCI-H23 lung) [µM] | GI50 (SN12C renal) [µM] | GI50 (DU-145 prostate) [µM] | GI50 (HCT-116 colon) [µM]
1 | COc1ccc(/C=C2\CCC(Cc3ccccc3)(CN(C)C)C2=O)cc1 (stereo not drawn) | > 100 | > 100 | > 100 | 66.2 | 54 | > 100 | > 100 | > 100 | > 100 | > 100 | – | – | – | – | – | – | – | – | – | –
2 | N[C@@H](CSSC[C@H](N)C(=O)N1CCn2cc(-c3ccccc3)nc2[C@@H]1CC1CCCCC1)C(=O)N1CCn2cc(-c3ccccc3)nc2[C@@H]1CC1CCCCC1 | 4.52 | 3.91 | 2.47 | 3.32 | – | 3.61 | 3.14 | 3.56 | 8.65 | 2.51 | 2.12 | 2.23 | 0.91 | 1.4 | 1.38 | 1.69 | 1.41 | 1.62 | 2.45 | 1.14
3 | CC(C)[C@H](C(=O)O[C@@H]1/C=C/C(=O)O[C@@H](C)CCC/C=C/[C@@H]2C[C@H](O)C[C@H]21)N(C)C | 21.1 | 35.6 | 11 | 71.1 | 33.8 | > 83.7 | > 83.6 | > 68.7 | > 100 | 37.2 | 6.15 | 7.13 | 3.65 | 15.2 | 14.9 | 15 | 16.8 | 26.7 | 31.5 | 14.5
4 | Fc1ccc(C2C3CCOc4c(ccc5ccccc45)C3=NN2c2ccccc2)cc1 (stereo not drawn) | > 100 | > 100 | > 100 | > 100 | > 100 | > 100 | > 100 | > 100 | > 100 | > 100 | > 100 | > 100 | > 100 | 43.9 | 13.3 | > 100 | > 100 | > 100 | > 100 | > 86.2
5 | COc1cc(Cn2c(SCC(=O)Nc3ccc(Cl)cc3)nc3ccccc3c2=O)cc(OC)c1OC | 12.3 | 23.8 | > 100 | 28 | > 100 | 32.4 | 72.6 | > 100 | > 100 | 14.9 | 3.37 | 6.42 | 32.3 | 6.04 | 18.5 | 3.75 | 16.5 | 16.9 | 18.1 | 4.04
6 | COc1cc(NC(C)CCCN2C(=O)c3ccccc3C2=O)c2ncccc2c1OC (stereo not drawn) | > 100 | 83.7 | > 100 | > 100 | > 100 | > 100 | > 100 | > 100 | > 100 | > 100 | 54.1 | 23.4 | 29.7 | 40.6 | 23.7 | 36.7 | 26.3 | 66.9 | 41.9 | 31.2
7 | Oc1cccc(-c2nc(-c3ccccc3)[nH]c2-c2ccncc2)c1 | > 25 | > 25 | > 25 | 14 | > 25 | > 25 | > 25 | > 25 | > 25 | > 25 | 9.11 | > 25 | 13 | 2.97 | 11.3 | 10.1 | 12.4 | 15.9 | 16.3 | 9.91
8 | COC1=CC2CCN3Cc4cc5c(cc4C(C1O)C23)OCC5 (stereo not drawn) | > 61.9 | > 47 | 30.3 | 34.6 | > 100 | > 46.6 | 8.28 | 6.08 | 21.2 | > 49.4 | 2.47 | 3.94 | 3.06 | 2.09 | – | 5.88 | 2.17 | 1.06 | 2.56 | 1.68
9 | Cc1cc2c(cc1Cl)SC(C(=O)c1ccc(Cl)c(Cl)c1)NS2(=O)=O (stereo not drawn) | 97 | 56.5 | 80.9 | > 100 | 81.8 | > 100 | 89.5 | 86.4 | 87.6 | 40.8 | 37.3 | 29.8 | 30.9 | 67.2 | 31.4 | 42.2 | 34.1 | 32 | 32.8 | 21.9
